Experimental data published in ChEMBL document CHEMBL1201862, “PubChem BioAssay data set” (2004).
Calls of active or inactive are those of the source.

Columns and labels:
[1] = biological target: T1, Tyrosine-protein phosphatase non-receptor type 7 (Homo sapiens, UniProt P35236); type: functional
T1 sequence (P35236 whole entry): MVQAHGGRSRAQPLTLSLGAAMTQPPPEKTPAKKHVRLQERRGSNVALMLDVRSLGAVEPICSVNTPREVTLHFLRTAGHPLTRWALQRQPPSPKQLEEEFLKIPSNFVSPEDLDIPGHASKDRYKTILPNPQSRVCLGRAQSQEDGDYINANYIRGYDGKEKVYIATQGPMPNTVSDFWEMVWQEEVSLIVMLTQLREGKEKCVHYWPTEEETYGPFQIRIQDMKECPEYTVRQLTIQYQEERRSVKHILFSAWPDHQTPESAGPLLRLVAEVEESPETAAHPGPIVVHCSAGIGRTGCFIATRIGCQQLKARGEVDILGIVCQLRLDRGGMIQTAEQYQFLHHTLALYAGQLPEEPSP

[2] = biological target: T2, Bcl-2-related protein A1 (Mus musculus, UniProt Q07440); type: functional;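 further: confirmatory dose–response counterscreen on Bfl-1, used to check hits from a UBC13 polyubiquitin inhibitor campaign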
T2 sequence (Q07440 whole entry): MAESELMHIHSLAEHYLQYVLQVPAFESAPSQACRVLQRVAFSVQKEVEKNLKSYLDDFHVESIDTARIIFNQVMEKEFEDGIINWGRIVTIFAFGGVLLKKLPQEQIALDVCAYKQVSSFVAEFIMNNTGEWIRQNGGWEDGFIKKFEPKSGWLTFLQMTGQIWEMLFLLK

[3] = biological target: Troponin, cardiac muscle (Homo sapiens, UniProt P19429+P45379+P63316); assay: inhibitors of cardiac thin filament calcium sensitivity, dose response, biochemical, fluorescence, cardiac regulated thin filaments, triplicate IC50 (AID 504742); type: protein-complex assay
[4] = biological target: T3, Dual specificity protein phosphatase 6 (Rattus norvegicus, UniProt Q64346); type: functional;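 further: confirmatory in vitro dose-response testing of MKP-3 inhibition; recombinant His-tagged MKP-3 made in E. coli BL21 with OMFP substrate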
T3 sequence (Q64346 whole entry): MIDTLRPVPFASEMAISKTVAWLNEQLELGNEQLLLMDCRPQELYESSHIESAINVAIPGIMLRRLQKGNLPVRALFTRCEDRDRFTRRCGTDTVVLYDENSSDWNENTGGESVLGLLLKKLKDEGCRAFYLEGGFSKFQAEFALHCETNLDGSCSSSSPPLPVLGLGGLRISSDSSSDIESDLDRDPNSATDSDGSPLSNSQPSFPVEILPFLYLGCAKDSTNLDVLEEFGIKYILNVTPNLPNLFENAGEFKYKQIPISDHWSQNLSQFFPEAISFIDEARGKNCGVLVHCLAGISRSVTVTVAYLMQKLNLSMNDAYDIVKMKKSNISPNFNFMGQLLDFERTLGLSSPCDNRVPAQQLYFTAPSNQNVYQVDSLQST

[5] = biological target: Testis-specific serine/threonine-protein kinase 2 (Homo sapiens, UniProt Q96PF2); type: functional;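 further: part of the Navigating the Kinome panel, target entry STK22B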
Chain of Testis-specific serine/threonine-protein kinase 2 (Q96PF2 whole entry): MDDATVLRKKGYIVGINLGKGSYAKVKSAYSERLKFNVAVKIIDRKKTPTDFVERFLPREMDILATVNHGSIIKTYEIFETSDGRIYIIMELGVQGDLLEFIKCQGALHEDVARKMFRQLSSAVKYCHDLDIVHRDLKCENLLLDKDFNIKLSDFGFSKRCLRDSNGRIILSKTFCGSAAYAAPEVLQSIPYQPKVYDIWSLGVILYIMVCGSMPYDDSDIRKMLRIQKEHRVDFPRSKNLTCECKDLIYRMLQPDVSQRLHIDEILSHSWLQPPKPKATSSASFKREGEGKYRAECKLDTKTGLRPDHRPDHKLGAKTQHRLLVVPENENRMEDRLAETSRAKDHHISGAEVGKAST

[6] = biological target: Calcium/calmodulin-dependent protein kinase type II subunit beta (Homo sapiens, UniProt Q13554); type: functional
Chain of Calcium/calmodulin-dependent protein kinase type II subunit beta (Q13554 whole entry): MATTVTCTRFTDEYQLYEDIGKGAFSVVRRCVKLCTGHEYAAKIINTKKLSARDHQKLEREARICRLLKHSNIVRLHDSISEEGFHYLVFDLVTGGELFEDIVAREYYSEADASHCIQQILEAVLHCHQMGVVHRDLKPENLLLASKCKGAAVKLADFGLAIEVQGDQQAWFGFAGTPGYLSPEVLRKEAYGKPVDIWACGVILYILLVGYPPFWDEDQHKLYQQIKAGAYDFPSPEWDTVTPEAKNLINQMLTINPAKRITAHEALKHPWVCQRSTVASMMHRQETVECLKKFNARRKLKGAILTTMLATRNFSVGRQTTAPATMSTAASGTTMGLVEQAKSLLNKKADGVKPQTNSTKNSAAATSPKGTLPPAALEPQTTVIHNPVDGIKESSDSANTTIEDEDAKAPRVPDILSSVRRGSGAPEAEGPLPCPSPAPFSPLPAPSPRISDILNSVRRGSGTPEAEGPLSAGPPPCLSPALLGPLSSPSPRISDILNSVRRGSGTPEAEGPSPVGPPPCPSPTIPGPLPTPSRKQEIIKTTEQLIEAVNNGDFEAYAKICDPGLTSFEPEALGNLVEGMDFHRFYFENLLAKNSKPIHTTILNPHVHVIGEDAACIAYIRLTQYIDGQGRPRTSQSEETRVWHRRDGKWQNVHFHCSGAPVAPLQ

[7] = biological target: Protein kinase C iota type (Homo sapiens, UniProt P41743); type: functional;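 further: measured within a kinome-wide kinase panel, PRKCI as panel member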
Chain of Protein kinase C iota type (P41743 whole entry): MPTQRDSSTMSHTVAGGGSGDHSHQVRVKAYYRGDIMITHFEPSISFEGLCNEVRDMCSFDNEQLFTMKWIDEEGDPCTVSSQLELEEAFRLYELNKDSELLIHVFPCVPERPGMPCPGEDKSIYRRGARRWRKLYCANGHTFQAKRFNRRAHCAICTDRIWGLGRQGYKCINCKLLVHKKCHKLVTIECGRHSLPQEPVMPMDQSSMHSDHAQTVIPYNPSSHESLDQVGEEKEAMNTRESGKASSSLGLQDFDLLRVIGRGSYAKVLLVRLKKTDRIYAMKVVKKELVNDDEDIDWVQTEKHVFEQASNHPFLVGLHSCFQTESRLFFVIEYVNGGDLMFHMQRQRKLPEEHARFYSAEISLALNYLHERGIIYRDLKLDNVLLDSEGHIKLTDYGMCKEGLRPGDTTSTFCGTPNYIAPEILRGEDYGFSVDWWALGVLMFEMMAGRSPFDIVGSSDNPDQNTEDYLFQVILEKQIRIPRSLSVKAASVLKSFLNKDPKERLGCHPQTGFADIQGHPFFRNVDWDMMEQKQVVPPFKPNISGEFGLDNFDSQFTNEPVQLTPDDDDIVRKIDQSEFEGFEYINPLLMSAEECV

[8] = biological target: 3-phosphoinositide-dependent protein kinase 1 (Homo sapiens, UniProt O15530); type: functional;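 further: value comes from the Navigating the Kinome panel, PDPK1 member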
Chain of 3-phosphoinositide-dependent protein kinase 1 (O15530 whole entry): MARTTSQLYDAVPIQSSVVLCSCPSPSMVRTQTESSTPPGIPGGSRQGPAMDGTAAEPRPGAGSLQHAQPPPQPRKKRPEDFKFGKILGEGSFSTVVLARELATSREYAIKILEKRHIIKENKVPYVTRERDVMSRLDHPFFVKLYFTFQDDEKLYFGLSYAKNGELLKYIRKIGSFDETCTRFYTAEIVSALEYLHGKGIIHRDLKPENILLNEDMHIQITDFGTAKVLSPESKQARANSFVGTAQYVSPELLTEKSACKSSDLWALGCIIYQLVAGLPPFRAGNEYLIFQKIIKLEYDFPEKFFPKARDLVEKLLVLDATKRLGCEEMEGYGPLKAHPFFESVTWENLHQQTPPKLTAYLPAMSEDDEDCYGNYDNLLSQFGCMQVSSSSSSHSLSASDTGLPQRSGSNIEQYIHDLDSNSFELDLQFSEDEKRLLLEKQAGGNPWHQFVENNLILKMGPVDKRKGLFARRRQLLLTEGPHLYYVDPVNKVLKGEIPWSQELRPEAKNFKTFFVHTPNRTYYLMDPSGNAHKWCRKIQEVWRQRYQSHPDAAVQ

[9] = biological target: 5'-AMP-activated protein kinase catalytic subunit alpha-1 (Homo sapiens, UniProt Q13131); type: functional
Chain of 5'-AMP-activated protein kinase catalytic subunit alpha-1 (Q13131 whole entry): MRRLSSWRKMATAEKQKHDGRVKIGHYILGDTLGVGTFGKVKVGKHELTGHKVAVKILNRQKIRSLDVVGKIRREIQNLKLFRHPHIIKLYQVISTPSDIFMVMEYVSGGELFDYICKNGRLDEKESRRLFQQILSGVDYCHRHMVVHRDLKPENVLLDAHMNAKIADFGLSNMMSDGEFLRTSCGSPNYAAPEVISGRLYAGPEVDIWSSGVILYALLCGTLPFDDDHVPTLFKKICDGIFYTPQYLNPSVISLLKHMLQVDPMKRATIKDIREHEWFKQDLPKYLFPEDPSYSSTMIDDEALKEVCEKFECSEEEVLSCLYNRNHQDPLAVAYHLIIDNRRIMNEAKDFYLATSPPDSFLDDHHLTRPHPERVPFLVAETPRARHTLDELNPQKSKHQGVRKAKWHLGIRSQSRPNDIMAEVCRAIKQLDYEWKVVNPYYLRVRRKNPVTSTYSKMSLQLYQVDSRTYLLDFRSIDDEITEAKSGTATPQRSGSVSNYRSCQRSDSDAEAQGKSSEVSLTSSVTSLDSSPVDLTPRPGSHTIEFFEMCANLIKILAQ

[10] = biological target: Receptor-type tyrosine-protein kinase FLT3 (Homo sapiens, UniProt P36888); type: functional;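 further: FLT3 was tested as one member of a kinome-wide kinase panel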
Chain of Receptor-type tyrosine-protein kinase FLT3 (P36888 whole entry): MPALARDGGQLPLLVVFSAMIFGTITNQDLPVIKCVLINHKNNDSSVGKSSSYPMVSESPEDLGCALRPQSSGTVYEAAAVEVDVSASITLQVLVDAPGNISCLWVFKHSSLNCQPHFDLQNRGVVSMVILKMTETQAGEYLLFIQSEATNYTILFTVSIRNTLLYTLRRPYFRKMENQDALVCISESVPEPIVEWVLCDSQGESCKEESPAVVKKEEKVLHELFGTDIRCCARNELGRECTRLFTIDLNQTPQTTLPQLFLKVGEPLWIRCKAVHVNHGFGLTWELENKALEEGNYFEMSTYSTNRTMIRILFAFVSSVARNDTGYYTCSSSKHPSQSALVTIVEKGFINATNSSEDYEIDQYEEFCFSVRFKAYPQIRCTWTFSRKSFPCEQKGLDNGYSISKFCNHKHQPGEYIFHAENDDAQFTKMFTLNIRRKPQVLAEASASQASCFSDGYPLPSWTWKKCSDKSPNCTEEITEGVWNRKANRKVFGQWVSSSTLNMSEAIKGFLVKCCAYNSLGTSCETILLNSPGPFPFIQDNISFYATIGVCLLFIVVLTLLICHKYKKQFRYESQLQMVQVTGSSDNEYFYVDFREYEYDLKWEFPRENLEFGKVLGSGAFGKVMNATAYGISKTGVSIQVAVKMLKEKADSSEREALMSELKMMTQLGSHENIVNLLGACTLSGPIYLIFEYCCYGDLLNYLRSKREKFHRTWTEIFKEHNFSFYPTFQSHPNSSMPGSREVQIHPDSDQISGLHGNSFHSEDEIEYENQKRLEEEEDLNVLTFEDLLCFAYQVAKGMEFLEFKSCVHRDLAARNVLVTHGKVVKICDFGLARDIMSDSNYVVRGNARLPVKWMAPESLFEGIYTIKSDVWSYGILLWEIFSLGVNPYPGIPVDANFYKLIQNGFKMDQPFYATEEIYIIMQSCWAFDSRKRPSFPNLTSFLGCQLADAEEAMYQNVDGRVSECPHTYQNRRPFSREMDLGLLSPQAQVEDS

[11] = biological target: Vascular endothelial growth factor receptor 1 (Homo sapiens, UniProt P17948); type: functional;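 further: measured within a kinome-wide profiling panel, FLT1 as the panel member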
Chain of Vascular endothelial growth factor receptor 1 (P17948 whole entry): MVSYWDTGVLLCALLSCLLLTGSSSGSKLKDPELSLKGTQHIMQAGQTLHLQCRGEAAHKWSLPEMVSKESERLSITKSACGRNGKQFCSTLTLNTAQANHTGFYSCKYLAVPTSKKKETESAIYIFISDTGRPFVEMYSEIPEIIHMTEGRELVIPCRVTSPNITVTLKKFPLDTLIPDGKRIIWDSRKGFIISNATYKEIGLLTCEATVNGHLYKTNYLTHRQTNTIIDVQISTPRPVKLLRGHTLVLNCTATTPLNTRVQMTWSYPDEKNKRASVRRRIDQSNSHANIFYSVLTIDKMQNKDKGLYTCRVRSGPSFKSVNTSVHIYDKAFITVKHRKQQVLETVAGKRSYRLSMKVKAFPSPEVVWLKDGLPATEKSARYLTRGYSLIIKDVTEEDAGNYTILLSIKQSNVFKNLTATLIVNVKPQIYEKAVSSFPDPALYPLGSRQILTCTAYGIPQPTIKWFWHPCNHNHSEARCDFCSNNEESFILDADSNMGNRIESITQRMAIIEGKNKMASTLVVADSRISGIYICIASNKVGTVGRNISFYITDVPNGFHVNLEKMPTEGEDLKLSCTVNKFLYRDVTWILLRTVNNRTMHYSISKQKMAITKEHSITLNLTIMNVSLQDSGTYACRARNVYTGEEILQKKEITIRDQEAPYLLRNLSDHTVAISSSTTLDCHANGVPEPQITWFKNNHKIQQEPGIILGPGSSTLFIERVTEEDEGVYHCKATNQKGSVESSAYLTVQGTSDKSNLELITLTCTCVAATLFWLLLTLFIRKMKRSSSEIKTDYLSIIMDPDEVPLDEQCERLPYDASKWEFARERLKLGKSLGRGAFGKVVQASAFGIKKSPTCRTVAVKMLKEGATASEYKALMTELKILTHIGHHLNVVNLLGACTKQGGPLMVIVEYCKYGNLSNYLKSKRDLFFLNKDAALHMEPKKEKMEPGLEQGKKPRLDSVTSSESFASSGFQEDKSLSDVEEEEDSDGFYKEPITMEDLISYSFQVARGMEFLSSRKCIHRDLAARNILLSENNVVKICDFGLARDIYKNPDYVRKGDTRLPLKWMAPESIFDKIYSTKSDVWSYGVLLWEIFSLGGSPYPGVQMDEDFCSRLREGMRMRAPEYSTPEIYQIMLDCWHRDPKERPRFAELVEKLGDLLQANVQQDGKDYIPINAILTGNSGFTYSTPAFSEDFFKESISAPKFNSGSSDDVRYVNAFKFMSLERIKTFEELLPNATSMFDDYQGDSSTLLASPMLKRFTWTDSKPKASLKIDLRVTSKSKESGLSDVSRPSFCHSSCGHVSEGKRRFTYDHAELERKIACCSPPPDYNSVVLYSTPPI

[12] = tested on: BJ; assay: cytotoxicity toward BJ-TERT fibroblasts, dose response, cell-based, RAS-independent, luminescence (AID 1933); type: functional; conditions: Homo sapiens
[13] = tested on: BJ; assay: cells; type: functional, cell-based; conditions: Homo sapiens
[14] = biological target: Platelet-derived growth factor receptor beta (Homo sapiens, UniProt P09619); type: functional;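 further: value comes from a kinome panel, with PDGFRB tested as one panel member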
[15] = biological target: T4, Alkaline phosphatase, tissue-nonspecific isozyme (Homo sapiens, UniProt P05186); assay: TNAP enzyme inhibition by screening hits, dose response, selectivity assay for mouse IAP inhibitor project, biochemical, human TNAP, uHTS hits (AID 488906); type: functional
T4 sequence (P05186 whole entry): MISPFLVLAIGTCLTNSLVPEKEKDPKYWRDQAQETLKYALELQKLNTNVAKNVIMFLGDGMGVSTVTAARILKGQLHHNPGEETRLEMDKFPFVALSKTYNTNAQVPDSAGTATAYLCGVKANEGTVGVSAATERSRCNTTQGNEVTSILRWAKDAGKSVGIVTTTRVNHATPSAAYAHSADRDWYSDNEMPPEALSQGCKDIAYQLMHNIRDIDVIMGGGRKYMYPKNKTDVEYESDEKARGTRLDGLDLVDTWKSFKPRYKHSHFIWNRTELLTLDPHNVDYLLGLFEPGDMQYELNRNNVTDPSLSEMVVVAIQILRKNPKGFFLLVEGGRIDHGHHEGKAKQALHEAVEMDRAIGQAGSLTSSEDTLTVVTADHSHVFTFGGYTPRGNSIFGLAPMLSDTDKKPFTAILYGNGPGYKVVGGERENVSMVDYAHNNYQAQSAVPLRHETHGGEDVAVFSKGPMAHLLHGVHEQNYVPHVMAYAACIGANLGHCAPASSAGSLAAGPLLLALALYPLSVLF

In the case of `COc1cccc2c1NC(C(=O)O)C1CC=CC21` (stereo not given), the IC50 [1] is reported as 11.3 µM (active), the IC50 [2] is reported as 1.1 µM (active) and the IC50 [3] is reported as 27.7 µM (inactive). For the same compound, the IC50 [4] was 13.1 µM (active).
With `Cc1ccc(F)c(NC(=O)Nc2ccc(-c3cccc4[nH]nc(N)c34)cc2)c1` [LINIFANIB] the Ki [5] was > 1.58 µM (inactive), the Ki [6] was 3.98 µM (active) and the Ki [7] was > 5.01 µM (inactive). For the same compound, the Ki [8] was > 3.98 µM (inactive).
In the case of `COc1c(-c2nc3ccccc3[nH]2)c(O)cc2oc(C)cc(=O)c12`, the Ki [9] is reported as 0.794 µM (active), the Ki [10] is reported as 0.398 µM (active) and the Ki [11] is reported as 2 µM (active).
In the case of `CCc1ccc(S(=O)(=O)/N=C2\C=C(Nc3ccc(O)cc3)C(=O)c3ccccc32)cc1`, the EC50 [12] is reported as 1.51 µM (active) and the EC50 [13] is reported as 2.96 µM (active).
`COC(=O)c1c(N)nc2ccccn12` was tested, and the Ki [14] was > 79.4 µM (inactive).
For `O=C1/C(=C\c2cccc(O)c2O)SC(=S)N1Cc1ccccc1`, the IC50 [15] was > 100 µM (inactive).
